Key:
EP300 = EP300 (Homo sapiens, UniProt Q09472); assay: Histone acetyltransferase inhibitory activity against EP300 (Test Example 1); format: biochemical; conditions: 50 ng/mL EP300, 2 μM Acetyl-CoA, 100 nM Histone H4(1-25)-GSGSK (Biotin), 28° C. for 1 hour
Description: (§1) [Test Example 1] Evaluation of Histone
(§2) Acetyltransferase Inhibitory Activity against EP300 and CREBBP
(§3) 10 μL each of reaction solutions each containing a different concentration of the compound of each of Examples 1 to 108b (50 mM Tris-HCl (pH8.0), 0.1 mM EDTA, 1 mM dithiothreitol, 0.01% Tween-20, 0.01% Bovine serum albumin, 330 nM trichostatin A, 2 μM Acetyl-CoA (Sigma-Aldrich, #A2056), 100 nM Histone H4(1-25)-GSGSK (Biotin) (Anaspec, #65242-1), 1% dimethyl sulfoxide, 10 to 0.0006 μM of each compound, 50 ng/mL EP300 or 125 ng/mL CREBBP) was added to respective wells of a 384-well plate, and cultured at 28° C. for 1 hour. Thereafter, 5 μL of 30 μM Lys-CoA (Daiichi Sankyo Co., Ltd.) dissolved in LANCE detection buffer (Perkin Elmer Co., Ltd., #CR97-100) was added to each well. Furthermore, 5 μL of LANCE detection buffer containing 2 nM Eu-anti pan-Ac (Perkin Elmer Co., Ltd., #TRF0412) and 50 nM Sta-Ulight (Perkin Elmer Co., Ltd., #TRF0102) was added to each well, and the resultant was cultured at room temperature overnight. EnVision (Perkin Elmer Co., Ltd., Model 2104-0020) was used to measure ULight signals. […] EP300 and CREBBP were produced and purified by Daiichi Sankyo RD Novare Co., Ltd.

CREBBP = CREBBP (Homo sapiens, UniProt Q92793); assay: Histone acetyltransferase inhibitory activity against CREBBP (Test Example 1); format: biochemical; conditions: 125 ng/mL CREBBP, 2 μM Acetyl-CoA, 100 nM Histone H4(1-25)-GSGSK (Biotin), 28° C. for 1 hour
Description: as §1, §2, §3

H3K27Ac = assay: Intracellular H3K27Ac inhibitory activity in LK2 cells (Test Example 2); format: cell-based; conditions: Homo sapiens, LK-2, cultured with compound for 3 hours, read-out: Test Example 2 H3K27Ac Inhibition (LK2) IC50
Description: [Test Example 2] Evaluation of Intracellular H3K27Ac Inhibitory Activity
LK2 cells derived from human squamous cell lung cancer were seeded in a 96 well plate at 40000 cells/100 μL/well, and were cultured overnight at 37° C. in 5% CO2. The LK2 cells were purchased from Human Science Research Resources Bank. […] The supernatant was discarded, 4% paraformaldehyde was added thereto at 100 μL/well, and the resultant was allowed to stand still at room temperature for 15 minutes. The 4% paraformaldehyde was discarded, and the resultant was washed with PBS-T. A quenching buffer (PBS-T containing 1% H2O2) was added thereto at of 100 μL/well, and the resultant was allowed to stand still at room temperature for 10 minutes. The resultant was washed with PBS-T, a blocking buffer (StartingBlocK T20 (TBS) Blocking Buffer (Thermo […], #37543)) was added thereto at 200 μL/well, and the resultant was allowed to stand still at room temperature for 1 hour. The supernatant was discarded, Acetyl-Histone H3 (Lys27) (D5E4) XP (registered trademark) Rabbit mAb (cell Signaling, #8173) diluted with a blocking buffer was added thereto at 50 μL/well, and the resultant was allowed to stand still at 4° C. overnight. The resultant was washed with PBS-T, Anti-Rabbit IgG-HRP (Cell Signaling, #7074S) diluted with a blocking buffer was added thereto at 50 μL/well, and the resultant was cultured at room temperature for 1 hour. The resultant was washed with PBS-T, SuperSignal (registered trademark) ELISA Pico Chemiluminescent Substrate (Thermo […], #37069) was added thereto at 50 μL/well, and a signal was measured using EnVision.

Chain of EP300 (Q09472 whole entry): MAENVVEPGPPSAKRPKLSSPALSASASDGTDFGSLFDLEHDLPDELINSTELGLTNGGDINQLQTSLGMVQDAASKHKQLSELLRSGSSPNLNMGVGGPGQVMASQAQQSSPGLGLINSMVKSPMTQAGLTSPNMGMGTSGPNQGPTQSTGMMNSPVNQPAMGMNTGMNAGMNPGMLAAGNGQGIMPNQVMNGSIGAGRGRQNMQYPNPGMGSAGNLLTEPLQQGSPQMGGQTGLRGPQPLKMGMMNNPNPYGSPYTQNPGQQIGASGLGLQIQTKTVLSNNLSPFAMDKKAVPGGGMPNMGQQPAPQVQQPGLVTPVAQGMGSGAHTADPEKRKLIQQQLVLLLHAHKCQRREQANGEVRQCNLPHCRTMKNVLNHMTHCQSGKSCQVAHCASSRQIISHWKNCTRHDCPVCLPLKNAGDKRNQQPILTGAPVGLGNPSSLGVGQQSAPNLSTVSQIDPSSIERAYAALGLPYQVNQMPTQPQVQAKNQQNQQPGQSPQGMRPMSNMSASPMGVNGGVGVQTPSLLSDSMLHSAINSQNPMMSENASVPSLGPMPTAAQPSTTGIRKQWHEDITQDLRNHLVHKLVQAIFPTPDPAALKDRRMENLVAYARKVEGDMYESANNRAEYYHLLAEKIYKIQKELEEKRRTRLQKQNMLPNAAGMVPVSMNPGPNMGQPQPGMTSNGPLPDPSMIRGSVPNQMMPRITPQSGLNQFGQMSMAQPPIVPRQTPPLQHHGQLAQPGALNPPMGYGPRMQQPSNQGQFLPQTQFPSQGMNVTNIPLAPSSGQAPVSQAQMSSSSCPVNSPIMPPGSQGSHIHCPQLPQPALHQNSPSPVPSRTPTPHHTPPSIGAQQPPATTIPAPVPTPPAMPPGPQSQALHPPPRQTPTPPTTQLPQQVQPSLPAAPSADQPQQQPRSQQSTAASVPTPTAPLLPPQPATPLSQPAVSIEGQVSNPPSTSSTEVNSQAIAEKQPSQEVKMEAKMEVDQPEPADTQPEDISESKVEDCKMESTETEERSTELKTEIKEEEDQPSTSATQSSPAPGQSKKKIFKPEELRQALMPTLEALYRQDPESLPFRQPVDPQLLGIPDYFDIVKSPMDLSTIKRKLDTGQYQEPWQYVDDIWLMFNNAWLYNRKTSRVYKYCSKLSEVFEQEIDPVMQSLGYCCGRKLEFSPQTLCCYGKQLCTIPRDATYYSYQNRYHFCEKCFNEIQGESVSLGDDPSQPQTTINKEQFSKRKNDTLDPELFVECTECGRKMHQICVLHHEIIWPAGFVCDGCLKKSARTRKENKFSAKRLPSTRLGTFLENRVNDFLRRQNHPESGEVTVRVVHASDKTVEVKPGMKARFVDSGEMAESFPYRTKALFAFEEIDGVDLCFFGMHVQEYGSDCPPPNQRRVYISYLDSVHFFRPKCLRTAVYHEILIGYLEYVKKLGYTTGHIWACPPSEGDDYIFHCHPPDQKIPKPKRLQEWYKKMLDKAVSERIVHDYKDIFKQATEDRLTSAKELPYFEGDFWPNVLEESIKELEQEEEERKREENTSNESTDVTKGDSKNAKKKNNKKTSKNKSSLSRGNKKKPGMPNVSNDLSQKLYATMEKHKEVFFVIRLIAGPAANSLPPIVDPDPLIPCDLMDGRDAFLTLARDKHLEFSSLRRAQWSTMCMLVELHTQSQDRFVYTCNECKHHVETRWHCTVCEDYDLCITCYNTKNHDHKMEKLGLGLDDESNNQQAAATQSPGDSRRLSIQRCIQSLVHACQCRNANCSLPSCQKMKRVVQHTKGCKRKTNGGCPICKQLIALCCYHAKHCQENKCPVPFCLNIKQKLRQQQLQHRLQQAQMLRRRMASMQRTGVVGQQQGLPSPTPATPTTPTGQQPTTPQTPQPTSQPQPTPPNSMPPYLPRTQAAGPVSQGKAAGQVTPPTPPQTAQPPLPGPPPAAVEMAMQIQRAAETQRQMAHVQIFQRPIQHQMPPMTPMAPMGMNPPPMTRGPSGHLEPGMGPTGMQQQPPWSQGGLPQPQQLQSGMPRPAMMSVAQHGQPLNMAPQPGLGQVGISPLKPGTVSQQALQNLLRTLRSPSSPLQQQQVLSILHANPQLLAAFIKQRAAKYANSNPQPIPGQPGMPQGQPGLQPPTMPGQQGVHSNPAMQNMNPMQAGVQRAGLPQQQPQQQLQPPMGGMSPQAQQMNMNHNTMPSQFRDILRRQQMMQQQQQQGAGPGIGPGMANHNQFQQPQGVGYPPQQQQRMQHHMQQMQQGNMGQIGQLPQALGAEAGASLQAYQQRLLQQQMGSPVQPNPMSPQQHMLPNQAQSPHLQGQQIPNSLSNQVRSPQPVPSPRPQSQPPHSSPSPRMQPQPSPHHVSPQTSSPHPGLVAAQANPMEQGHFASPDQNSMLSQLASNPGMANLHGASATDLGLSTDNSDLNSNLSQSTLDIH
Chain of CREBBP (Q92793 whole entry): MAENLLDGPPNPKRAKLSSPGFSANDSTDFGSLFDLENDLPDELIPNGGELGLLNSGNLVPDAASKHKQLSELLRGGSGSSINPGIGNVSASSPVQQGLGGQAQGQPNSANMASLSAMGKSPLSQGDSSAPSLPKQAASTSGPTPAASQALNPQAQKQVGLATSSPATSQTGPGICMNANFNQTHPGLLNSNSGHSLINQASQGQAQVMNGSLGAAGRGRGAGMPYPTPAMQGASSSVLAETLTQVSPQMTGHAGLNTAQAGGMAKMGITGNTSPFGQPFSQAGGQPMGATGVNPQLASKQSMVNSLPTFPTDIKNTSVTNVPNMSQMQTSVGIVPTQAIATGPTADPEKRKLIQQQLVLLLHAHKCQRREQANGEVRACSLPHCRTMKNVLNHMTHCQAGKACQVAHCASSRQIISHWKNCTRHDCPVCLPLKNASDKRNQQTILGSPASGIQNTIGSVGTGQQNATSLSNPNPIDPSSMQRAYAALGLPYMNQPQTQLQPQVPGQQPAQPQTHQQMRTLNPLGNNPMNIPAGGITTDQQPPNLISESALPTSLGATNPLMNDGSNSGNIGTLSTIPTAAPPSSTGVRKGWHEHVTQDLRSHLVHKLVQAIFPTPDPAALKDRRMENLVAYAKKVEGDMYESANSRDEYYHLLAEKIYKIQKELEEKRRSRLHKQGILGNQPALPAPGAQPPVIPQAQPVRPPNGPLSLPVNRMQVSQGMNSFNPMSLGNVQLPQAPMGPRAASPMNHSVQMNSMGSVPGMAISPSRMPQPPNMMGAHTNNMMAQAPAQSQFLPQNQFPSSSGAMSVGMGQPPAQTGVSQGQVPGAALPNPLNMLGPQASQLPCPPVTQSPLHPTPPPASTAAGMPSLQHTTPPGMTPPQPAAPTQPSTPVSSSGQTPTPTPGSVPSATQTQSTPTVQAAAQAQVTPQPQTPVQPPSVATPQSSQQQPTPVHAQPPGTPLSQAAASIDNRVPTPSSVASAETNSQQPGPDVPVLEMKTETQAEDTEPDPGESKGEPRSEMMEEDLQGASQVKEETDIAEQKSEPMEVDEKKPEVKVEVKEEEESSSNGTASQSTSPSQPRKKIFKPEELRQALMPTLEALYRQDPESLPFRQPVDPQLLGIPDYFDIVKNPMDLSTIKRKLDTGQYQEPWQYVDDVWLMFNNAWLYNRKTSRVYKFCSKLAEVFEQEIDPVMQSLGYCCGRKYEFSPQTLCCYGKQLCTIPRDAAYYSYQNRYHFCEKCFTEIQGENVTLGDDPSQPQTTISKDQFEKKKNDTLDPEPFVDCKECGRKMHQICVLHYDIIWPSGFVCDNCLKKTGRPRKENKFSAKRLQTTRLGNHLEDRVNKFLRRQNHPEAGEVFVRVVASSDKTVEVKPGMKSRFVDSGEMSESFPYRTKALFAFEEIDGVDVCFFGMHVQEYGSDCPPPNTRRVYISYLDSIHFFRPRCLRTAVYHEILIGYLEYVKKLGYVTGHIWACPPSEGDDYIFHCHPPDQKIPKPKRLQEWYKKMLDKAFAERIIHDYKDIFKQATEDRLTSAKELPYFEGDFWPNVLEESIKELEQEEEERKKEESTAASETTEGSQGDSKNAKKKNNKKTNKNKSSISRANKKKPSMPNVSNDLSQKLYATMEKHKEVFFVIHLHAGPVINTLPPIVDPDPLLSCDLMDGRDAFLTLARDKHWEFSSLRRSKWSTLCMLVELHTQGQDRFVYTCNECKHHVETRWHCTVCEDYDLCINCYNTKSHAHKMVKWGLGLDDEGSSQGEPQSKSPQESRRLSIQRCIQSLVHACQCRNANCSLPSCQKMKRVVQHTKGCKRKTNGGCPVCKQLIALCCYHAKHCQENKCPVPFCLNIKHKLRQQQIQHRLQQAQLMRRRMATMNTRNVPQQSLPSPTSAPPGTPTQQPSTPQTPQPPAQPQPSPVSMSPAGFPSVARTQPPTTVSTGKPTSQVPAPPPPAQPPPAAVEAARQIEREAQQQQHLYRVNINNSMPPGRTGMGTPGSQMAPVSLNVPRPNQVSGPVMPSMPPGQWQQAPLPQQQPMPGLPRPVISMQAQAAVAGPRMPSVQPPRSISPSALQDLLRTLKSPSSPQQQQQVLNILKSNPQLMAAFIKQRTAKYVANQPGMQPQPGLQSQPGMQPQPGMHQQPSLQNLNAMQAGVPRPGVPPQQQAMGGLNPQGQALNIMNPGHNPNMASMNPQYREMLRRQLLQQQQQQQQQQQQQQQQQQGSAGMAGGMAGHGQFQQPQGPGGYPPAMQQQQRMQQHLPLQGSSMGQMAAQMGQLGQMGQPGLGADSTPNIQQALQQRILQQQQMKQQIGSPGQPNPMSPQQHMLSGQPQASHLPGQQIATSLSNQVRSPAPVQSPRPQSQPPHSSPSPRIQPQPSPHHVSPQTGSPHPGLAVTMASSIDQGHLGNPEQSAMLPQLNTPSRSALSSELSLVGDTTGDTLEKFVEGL

Structure (SMILES) | IC50 (EP300) [nM] | IC50 (CREBBP) [nM] | IC50 (H3K27Ac) [nM]
COc1ccc(C2(C(=O)N3CSC[C@@H]3C(=O)Nc3ccccc3C#N)CCCCC2)cc1 [Example 34, (4S)—N-(2-Cyanophenyl)-3-{[1-(4-methoxyphenyl)cyclohexyl]carbonyl}-1,3-thiazolidine-4-carboxamide] | 40 | 39 | 307
CNc1cccc(NC(=O)[C@H]2CCCN2C(=O)C2(c3ccc(OC)cc3)CCCC2)n1 [Example 30, 1-{[1-(4-Methoxyphenyl)cyclopentyl]carbonyl}-N-[6-(methylamino)pyridin-2-yl)-D-prolinamide] | 182 | 233 | 577
COc1ccc(C2(C(=O)N3CCC[C@@H]3C(=O)Nc3ccc(OCCN4CCOCC4)cc3C#N)CCCC2)cc1 [Example 23, N-{2-Cyano-4-[2-(morpholin-4-yl)ethoxy]phenyl}-1-{[1-(4-methoxyphenyl)cyclopentyl]carbonyl}-D-prolinamide] | 101 | 171 | 121
COc1ccc(C2(C(=O)N3CS(=O)(=O)C[C@@H]3C(=O)Nc3ccc4[nH]ncc4n3)CCCCC2)cc1 [Example 40, (4S)-3-{[1-(4-Methoxyphenyl)cyclohexyl]carbonyl}-N-(1H-pyrazolo[4,3-b]pyridin-5-yl)-1,3-thiazolidin-4-carboxamide 1,1-dioxide] | 22 | 29 | 27
COc1ccc(C2(C(=O)N3CCC[C@@H]3C(=O)Nc3ccc(O)c(Cl)c3)CCCC2)cc1 [Example 21, N-(3-Chloro-4-hydroxy-phenyl)-1-{[1-(4-methoxyphenyl)cyclopentyl]carbonyl}-D-prolinamide] | 130 | 36 | 458
N#Cc1ccccc1NC(=O)[C@H]1C[C@@H](F)CN1C(=O)C1(c2ccc(C(=O)O)cc2)CCCC1 [Example 29, 4-[1-({(2R,4R)-2-[(2-Cyanophenyl)carbamoyl]-4-fluoropyrrolidin-1-yl}carbonyl)cyclopentyl] benzoic acid] | 20 | 125 | 474
COc1ccc(C2(C(=O)N3CCC[C@@H]3C(=O)Nc3ccn(C)n3)CCCC2)cc1 [Example 22, 1-{[1-(4-Methoxyphenyl)cyclopentyl]carbonyl}-N-(1-methyl-1H-pyrazol-3-yl)-D-prolinamide] | 962 | 676 | 2250
COc1ccc(C2(C(=O)N3CCC[C@@H]3C(=O)Nc3ccc4[nH]ccc4c3)CCCC2)cc1 [Example 17, N-1H-Indol-5-yl-1-{[1-(4-methoxyphenyl)cyclopentyl]carbonyl}-D-prolinamide] | 213 | 237 | 709
COc1ccc(C2(C(=O)N(C)CC(=O)Nc3cccc4[nH]ncc34)CCCCC2)cc1 [Example 2, N-[2-(1H-Indazol-4-ylamino)-2-oxoethyl]-1-(4-methoxyphenyl)-N-methylcyclohexanecarboxamide] | 193 | 128 | 1010
COc1ccc(C2(C(=O)N3CCC[C@@H]3C(=O)Nc3cccc4[nH]ccc34)CCCC2)cc1 [Example 16, N-1H-Indol-4-yl-1-{[1-(4-methoxyphenyl)cyclopentyl]carbonyl}-D-prolinamide] | 61 | 95 | 304
O=C(NS(=O)(=O)C1CC1)c1ccc(C2(C(=O)N3C[C@H](F)C[C@@H]3C(=O)Nc3cccc4[nH]ncc34)CCCCC2)cc1 [Example 36, (4R)-1-[(1-{4-[(Cyclopropylsulfonyl)carbamoyl]phenyl}cyclohexyl)carbonyl]-4-fluoro-N-1H-indazol-4-yl-D-prolinamide] | 17 | 23 | > 10000
COc1ccc(C2(C(=O)N3C[C@](C)(O)C[C@@H]3C(=O)Nc3cccc4[nH]ncc34)CCCC2)cc1 [Example 31, (4R)-4-Hydroxy-N-1H-indazol-4-yl-1-{[1-(4-methoxyphenyl)cyclopentyl]carbonyl}-4-methyl-D-prolinamide] | 364 | 652 | 1550
COc1ccc(C2(C(=O)N3CCC[C@@H]3C(=O)Nc3cccc4[nH]ncc34)CCC(F)(F)CC2)cc1 [Example 55] | – | – | 2020
COc1ccc(C2(C(=O)N3C[C@H](F)C[C@@H]3C(=O)Nc3ccc4c(n3)NC(=O)CO4)CCCCC2)cc1 [Example 67, (4R)-4-Fluoro-1-{[1-(4-methoxyphenyl)cyclohexyl]carbonyl}-N-(3-oxo-3,4-dihydro-2H-pyrido[3,2-b][1,4]oxazin-6-yl)-D-prolinamide] | 397 | 678 | 2410
O=C(O)c1ccc(C2(C(=O)N3CCC[C@@H]3C(=O)Nc3cccc4[nH]ncc34)CCCC2)cc1 [Example 4, 4-(1-{[(2R)-2-(1H-Indazol-4-ylcarbamoyl)pyrrolidin-1-yl]carbonyl}cyclopentyl)benzoic acid] | – | – | 11700
COc1ccc(C2(C(=O)N3CCC[C@@H]3C(=O)Nc3cccc(N)n3)CCCC2)cc1 [Example 15, N-(6-Aminopyridin-2-yl)-1-{[1-(4-methoxyphenyl)cyclopentyl]carbonyl}-D-prolinamide] | 218 | 353 | 908
COc1ccc(C2(C(=O)N3CCC[C@@H]3C(=O)Nc3ccc4[nH]c(=O)[nH]c4c3)CCCC2)cc1 [Example 19, l-{[1-(4-Methoxyphenyl)cyclopentyl]carbonyl}-N-(2-oxo-2,3-dihydro-1H-benzimidazol-5-yl)-D-prolinamide] | 171 | 169 | 1050
COc1ccc(C2(C(=O)N3CCC[C@@H]3C(=O)Nc3cccc4ccccc34)CCCC2)cc1 [Example 13, 1-{[1-(4-Methoxyphenyl)cyclopentyl]carbonyl}-N-naphthalen-1-yl-D-prolinamide] | – | – | 3990
COc1ccc(C2(C(=O)N3CCCC3C(=O)Nc3cccc4c3cnn4C)CCCCC2)cc1 (stereo not drawn) [Example 3, 1-{[1-(4-Methoxyphenyl)cyclohexyl]carbonyl}-N-(1-methyl-1H-indazol-4-yl)prolinamide] | – | – | 10600
COc1ccc(C2(C(=O)N3C[C@H](F)C[C@@H]3C(=O)Nc3cccc4[nH]ncc34)CCCCO2)cc1 (stereo partly drawn) [Example 43, (4R)-4-Fluoro-N-1H-indazol-4-yl-1-{[2-(4-methoxyphenyl)tetrahydro-2H-pyran-2-yl]carbonyl}-D-prolinamide] | – | – | 6450
COc1ccc(C2(C(=O)N3C[C@H](O)C[C@@H]3C(=O)Nc3cccc4[nH]ncc34)CCCC2)cc1 [Example 5, (4R)-4-Hydroxy-N-1H-indazol-4-yl-1-{[1-(4-methoxyphenyl)cyclopentyl]carbonyl}-D-prolinamide] | 259 | 334 | 1030
COc1ccc(C2(C(=O)N3CCC[C@@H]3C(=O)Nc3cccc4[nH]cnc34)CCCC2)cc1 [Example 59] | – | – | 2500

Reference: patent US11274100B2, “EP300/CREBBP inhibitor” (Daiichi Sankyo Company, Limited, priority 2017, dated 2022)
